Measurements from publication PMC5740381 (Antimicrobial Agents and Chemotherapy, 2017).
Like-named read-outs stand apart in the source and are kept apart here.

Key:
[1] = target: T1, GT1a H77 / 1a Wild type (Hepatitis C virus (isolate H77), UniProt P27958); assay: cell-based; set-up: species or system Huh-7; settings: SD, n = 3; read-out: HCV stable replicons in 0% human plasma, Mean EC50 ± SD
T1 construct: in subgenomic replicon
From the text: (§1) Five of these nine cell lines have been described previously, including those transfected with genotypes 1a H77, 1b Con1, 3a, 4a, and 6a ([28]). […] The genotype 2b and 6e NS3 sequences were each synthetically constructed based on a consensus sequence derived from the alignment of 15 genotype 2b and 4 genotype 6e sequences, respectively. All replicon constructs were bicistronic subgenomic replicons similar to those described by Bartenschlager and coworkers, and the replicon cell lines were generated by introducing these constructs into cells of an Huh-7 human hepatoma-derived cell line ([50]). The inhibitory effect of the PIs on HCV replication in replicon cells was determined in Dulbecco's modified Eagle medium containing 5% fetal bovine serum with or without 40% human plasma (Bioreclamation, Westbury, NY). The EC50s were determined using nonlinear regression curve fitting as described previously ([33]).

[2] = target: T2, GT1b Con1 / 1b Wild type (Hepatitis C virus (isolate Con1), UniProt Q9WMX2); assay: cell-based; set-up: species or system Huh-7; settings: SD, n = 3; read-out: HCV stable replicons in 0% human plasma, Mean EC50 ± SD
T2 construct: in subgenomic replicon
From the text: as §1

[3] = target: T1, GT1a H77 / 1a Wild type; assay: cell-based; set-up: species or system Huh-7; settings: SD, n = 3
Method: (§2) Mutagenesis was performed using a Change-IT multiple-mutation site-directed mutagenesis kit (USB, Cleveland, OH) or by cloning a synthesized DNA fragment encoding the amino acid substitution(s). The genotype 1a and 1b replicon shuttle vectors used for the introduction of the substitutions of interest in the NS3, NS5A, or NS5B gene for transient-transfection assays have been described previously ([28], [33]). The replicon shuttle vectors used for the introduction of substitutions in NS3 genes from other genotypes were similar to the stable replicon cell line constructs described above, except for the absence of the neo gene. After mutagenesis, the plasmids were linearized and RNA was transcribed and then used to transfect Huh-7 cells. Inhibition of HCV replication by the HCV inhibitors was measured by luciferase assay, as described above. Replication efficiency was calculated as a percentage of wild-type replication, as described previously ([28]).

[4] = target: T2, GT1b Con1 / 1b Wild type; assay: cell-based; set-up: species or system Huh-7; settings: SD, n = 3
Method: as §2

[5] = target: T3, 1a A156T (Hepatitis C virus (isolate H77), UniProt P27958, A1182T); assay: Luciferase assay of HCV replication in transient-transfection replicons with wild-type or substituted NS3 (at least 3 transfections).; type: cell-based, Huh-7; settings: SD, n = 3
T3 construct: in transient replicon
Method: as §2

[6] = target: T4, 1a D168A (Hepatitis C virus (isolate H77), UniProt P27958, D1194A); assay: as above; type: cell-based, Huh-7; settings: SD, n = 3
T4 construct: in transient replicon
Method: as §2

[7] = target: T5, 1a D168E (Hepatitis C virus (isolate H77), UniProt P27958, D1194E); assay: as above; type: cell-based, Huh-7; settings: SD, n = 3
T5 construct: in transient replicon
Method: as §2

[8] = target: T6, 1a D168V (Hepatitis C virus (isolate H77), UniProt P27958, D1194V); assay: as above; type: cell-based, Huh-7; settings: SD, n = 3
T6 construct: in transient replicon
Method: as §2

[9] = target: T7, 1a F43L (Hepatitis C virus (isolate H77), UniProt P27958, F1069L); assay: as above; type: cell-based, Huh-7; settings: SD, n = 3
T7 construct: in transient replicon
Method: as §2

[10] = target: T8, 1a Q80K (Hepatitis C virus (isolate H77), UniProt P27958, Q1106K); assay: as above; type: cell-based, Huh-7; settings: SD, n = 3
T8 construct: in transient replicon
Method: as §2

[11] = target: T9, 1a R155K (Hepatitis C virus (isolate H77), UniProt P27958, R1181K); assay: as above; type: cell-based, Huh-7; settings: SD, n = 3
T9 construct: in transient replicon
Method: as §2

[12] = target: T10, 1a T54S (Hepatitis C virus (isolate H77), UniProt P27958, T1080S); assay: as above; type: cell-based, Huh-7; settings: SD, n = 3
T10 construct: in transient replicon
Method: as §2

[13] = target: T11, 1a V36M (Hepatitis C virus (isolate H77), UniProt P27958, V1062M); assay: as above; type: cell-based, Huh-7; settings: SD, n = 3
T11 construct: in transient replicon
Method: as §2

[14] = target: T12, 1a V55I (Hepatitis C virus (isolate H77), UniProt P27958, V1081I); assay: as above; type: cell-based, Huh-7; settings: SD, n = 3
T12 construct: in transient replicon
Method: as §2

[15] = target: T13, 1a Y56H (Hepatitis C virus (isolate H77), UniProt P27958, Y1082H); assay: as above; type: cell-based, Huh-7; settings: SD, n = 3
T13 construct: in transient replicon
Method: as §2

[16] = target: T14, 1b A156T (Hepatitis C virus (isolate Con1), UniProt Q9WMX2, A1182T); assay: as above; type: cell-based, Huh-7; settings: SD, n = 3
T14 construct: in transient replicon
Method: as §2

[17] = target: T15, 1b A156V (Hepatitis C virus (isolate Con1), UniProt Q9WMX2, A1182V); assay: as above; type: cell-based, Huh-7; settings: SD, n = 3
T15 construct: in transient replicon
Method: as §2

[18] = target: T16, 1b D168A (Hepatitis C virus (isolate Con1), UniProt Q9WMX2, D1194A); assay: as above; type: cell-based, Huh-7; settings: SD, n = 3
T16 construct: in transient replicon
Method: as §2

[19] = target: T17, 1b D168E (Hepatitis C virus (isolate Con1), UniProt Q9WMX2, D1194E); assay: as above; type: cell-based, Huh-7; settings: SD, n = 3
T17 construct: in transient replicon
Method: as §2

[20] = target: T18, 1b D168V (Hepatitis C virus (isolate Con1), UniProt Q9WMX2, D1194V); assay: as above; type: cell-based, Huh-7; settings: SD, n = 3
T18 construct: in transient replicon
Method: as §2

[21] = target: T19, 1b R155K (Hepatitis C virus (isolate Con1), UniProt Q9WMX2, R1181K); assay: as above; type: cell-based, Huh-7; settings: SD, n = 3
T19 construct: in transient replicon
Method: as §2

[22] = target: T20, 1b T54A (Hepatitis C virus (isolate Con1), UniProt Q9WMX2, T1080A); assay: as above; type: cell-based, Huh-7; settings: SD, n = 3
T20 construct: in transient replicon
Method: as §2

[23] = target: T21, 1b V170A (Hepatitis C virus (isolate Con1), UniProt Q9WMX2, V1196A); assay: as above; type: cell-based, Huh-7; settings: SD, n = 3
T21 construct: in transient replicon
Method: as §2

[24] = target: T22, 1b V55A (Hepatitis C virus (isolate Con1), UniProt Q9WMX2, V1081A); assay: as above; type: cell-based, Huh-7; settings: SD, n = 3
T22 construct: in transient replicon
Method: as §2

[25] = target: T23, 2a A156T (Hepatitis C virus JFH-1, UniProt Q99IB8, A1186T); assay: as above; type: cell-based, Huh-7; settings: SD, n = 3
T23 construct: in transient replicon
Method: as §2

[26] = target: T24, 2a A156V (Hepatitis C virus JFH-1, UniProt Q99IB8, A1186V); assay: as above; type: cell-based, Huh-7; settings: SD, n = 3
T24 construct: in transient replicon
Method: as §2

[27] = target: T25, 2a D168A (Hepatitis C virus JFH-1, UniProt Q99IB8, D1198A); assay: as above; type: cell-based, Huh-7; settings: SD, n = 3
T25 construct: in transient replicon
Method: as §2

[28] = target: T26, 2a D168E (Hepatitis C virus JFH-1, UniProt Q99IB8, D1198E); assay: as above; type: cell-based, Huh-7; settings: SD, n = 3
T26 construct: in transient replicon
Method: as §2

[29] = target: T27, 2a D168V (Hepatitis C virus JFH-1, UniProt Q99IB8, D1198V); assay: as above; type: cell-based, Huh-7; settings: SD, n = 3
T27 construct: in transient replicon
Method: as §2

[30] = target: T28, 5a D168E (Hepatitis C virus SA13, UniProt O91936, D1195E); assay: as above; type: cell-based, Huh-7; settings: SD, n = 3
T28 construct: in genotype 2a JFH-1 chimeric transient replicon
Method: as §2

[31] = target: T29, 5a D168H (Hepatitis C virus SA13, UniProt O91936, D1195H); assay: as above; type: cell-based, Huh-7; settings: SD, n = 3
T29 construct: in genotype 2a JFH-1 chimeric transient replicon
Method: as §2

[32] = tested on: HCV genotype 1a replicon cells; assay: Drug-resistant colony selection in replicon cells; type: cell-based, Hepatitis C virus; settings: 10× EC50, about 3 weeks
From the text: (§3) . After approximately 3 weeks of treatment, the surviving replicon colonies in one plate for each selection condition were stained with crystal violet and counted, whereas approximately 20 to 30 colonies in a replicate plate or most of the colonies, if less than 20 colonies survived the selection, were picked and further expanded for genotyping. The expanded colonies were lysed in CellsDirect lysis buffer (Invitrogen, MA), and the NS3-coding region from each colony was amplified by reverse transcription-PCR and sequenced. For genotype 1a, 1b, 2a, and 5a colonies, the full-length NS3 sequence was determined, whereas for colonies of the chimeric replicon containing the N-terminal region of NS3 from genotype 2b, 3a, 4a, or 6a, the sequence encoding the NS3 N-terminal region was determined. We defined a substitution in a replicon to be an amino acid difference in a sequence from a posttreatment sample relative to the sequence of the corresponding untreated sample. For resistance selection studies, NS3 substitutions detected at the following amino acid positions associated with resistance to the HCV PI class in >2 colonies in each replicon selection are reported: 36, 43, 54, 55, 56, 80, 122, 155, 156, and 168. In addition, substitutions detected at other amino acid positions in the NS3 protease domain in >2 colonies in each replicon selection are also reported.
(§4) […]. The drug-resistant colonies were fixed and stained with crystal violet, and the number of colonies was determined.

[33] = tested on: HCV genotype 1b replicon cells; assay: Drug-resistant colony selection in replicon cells; type: cell-based, Hepatitis C virus; settings: 10× EC50, about 3 weeks
From the text: as §3, §4

[34] = tested on: genotype 1b Con1 replicon cells; settings: genotype 1b replicon cells; cited from earlier work

Structure (SMILES): Cc1cnc(C(=O)N[C@H]2CCCCC/C=C\[C@@H]3C[C@@]3(C(=O)NS(=O)(=O)C3CC3)NC(=O)[C@@H]3C[C@@H](Oc4nc5ccccc5c5ccccc45)CN3C2=O)cn1 [Paritaprevir, paritaprevir (ABT-450)]
- EC50 [1]: 1 ± 0.33 nM
- EC50 [2]: 0.21 ± 0.07 nM
- EC50 [3]: 1.4 ± 0.4 nM
- EC50 [4]: 0.11 ± 0.05 nM
- EC50 [5]: 24 ± 3 nM
- EC50 [6]: 70 ± 9 nM
- EC50 [7]: 20 ± 0.7 nM
- EC50 [8]: 135 ± 21 nM
- EC50 [9]: 27 ± 12 nM
- EC50 [10]: 3.9 ± 0.3 nM
- EC50 [11]: 51 ± 8 nM
- EC50 [12]: 0.54 ± 0.01 nM
- EC50 [13]: 3 ± 0.3 nM
- EC50 [14]: 1.4 ± 0.14 nM
- EC50 [15]: 4.1 ± 1.1 nM
- EC50 [16]: 0.81 ± 0.13 nM
- EC50 [17]: 2.3 ± 0.53 nM
- EC50 [18]: 3 ± 0.2 nM
- EC50 [19]: 0.48 ± 0.05 nM
- EC50 [20]: 17 ± 2 nM
- EC50 [21]: 4.4 ± 0.1 nM
- EC50 [22]: 0.09 ± 0.01 nM
- EC50 [23]: 0.09 ± 0.03 nM
- EC50 [24]: 0.07 ± 0.001 nM
- EC50 [25]: 29 ± 2.8 nM
- EC50 [26]: 37 ± 1.2 nM
- EC50 [27]: 306 ± 34 nM
- EC50 [28]: 89 ± 15 nM
- EC50 [29]: 228 ± 32 nM
- EC50 [30]: 7.7 ± 1.7 nM
- EC50 [31]: 184 ± 65 nM

Structure (SMILES): COC(=O)N[C@H](C(=O)N1CCC[C@H]1c1nc2cc([C@H]3CC[C@H](c4cc5nc([C@@H]6CCCN6C(=O)[C@@H](NC(=O)OC)[C@@H](C)OC)[nH]c5cc4F)N3c3cc(F)c(N4CCC(c5ccc(F)cc5)CC4)c(F)c3)c(F)cc2[nH]1)[C@@H](C)OC [Pibrentasvir, reference compound]
- Colony survival [32]: 0.0065%
- Colony survival [33]: 0%
- Colony survival ([33]; listed as pibrentasvir): no genotype 1b replicon cells survived
- EC50 [34]: 0.0043 nM
